Test results as given in PubChem BioAssay (NCI).
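Following 48 hours of exposure in 96-well plates, responses at five concentrations were used to interpolate endpoints linearly. GI50 marks 50% less growth. TGI: concentration producing complete growth inhibition.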

Experiments:
Test in all cases: growth of human tumour cells (NCI), 48 h
HS 578T breast = system: HS 578T breast
CAKI-1 renal = system: CAKI-1 renal
SNB-75 CNS = system: SNB-75 CNS
OVCAR-5 ovarian = system: OVCAR-5 ovarian
ACHN renal = system: ACHN renal
SK-MEL-2 melanoma = system: SK-MEL-2 melanoma
NCI-H460 lung = system: NCI-H460 lung
HCT-116 colon = system: HCT-116 colon
RPMI-8226 leukemia = system: RPMI-8226 leukemia
HOP-92 NSCLC = system: HOP-92 NSCLC

Row | Compound | TGI (HS 578T breast) | TGI (CAKI-1 renal) | TGI (SNB-75 CNS) | TGI (OVCAR-5 ovarian) | TGI (ACHN renal) | TGI (SK-MEL-2 melanoma) | TGI (NCI-H460 lung) | TGI (HCT-116 colon) | TGI (RPMI-8226 leukemia) | TGI (HOP-92 NSCLC) | GI50 (HS 578T breast) | GI50 (CAKI-1 renal) | GI50 (SNB-75 CNS) | GI50 (OVCAR-5 ovarian) | GI50 (ACHN renal) | GI50 (SK-MEL-2 melanoma) | GI50 (NCI-H460 lung) | GI50 (HCT-116 colon) | GI50 (RPMI-8226 leukemia) | GI50 (HOP-92 NSCLC)
1 | COC(=O)C1C(=O)C(C(=O)OC)C2CCC1N2C (centres undefined) | > 100 µM | > 100 µM | > 100 µM | > 100 µM | > 100 µM | 63.5 µM | > 100 µM | > 83.2 µM | > 100 µM | > 77.3 µM | – | – | – | – | – | – | – | – | – | –
2 | Cc1cc(NS(=O)(=O)c2ccc(-c3cnc(C4CC4)o3)cc2)ccc1Cl | 11.5 µM | 15.5 µM | 0.643 µM | 15 µM | 14.6 µM | 20.3 µM | 11.1 µM | 13.4 µM | > 52.1 µM | 10.1 µM | 0.233 µM | 0.0908 µM | 0.12 µM | 0.748 µM | 0.586 µM | 0.445 µM | 0.297 µM | 0.264 µM | 0.329 µM | 0.472 µM
3 | N#C/C(=C\c1ccc(O)c(O)c1)C(=O)NCc1cccc(C(F)(F)F)c1 | 47.3 µM | 7.39 µM | 59.2 µM | 55 µM | 35.2 µM | 2.98 µM | 31 µM | 17.4 µM | > 100 µM | 26.8 µM | 12 µM | 2.05 µM | 13.6 µM | 19.6 µM | 5.53 µM | 0.115 µM | 6.14 µM | 3.79 µM | 10.2 µM | 3.2 µM
4 | COc1cc2c3c(n(CCCNCCCCN)c(=O)c2cc1OC)-c1cc2c(cc1C3=O)OCO2 | 16.1 µM | 15 µM | 32.2 µM | 41 µM | 16.6 µM | 16.4 µM | 7.38 µM | 15.2 µM | 13.1 µM | 3.8 µM | 3.76 µM | – | 10.7 µM | 13.5 µM | 0.163 µM | 4.86 µM | < 0.041 µM | 1.85 µM | 0.355 µM | 0.738 µM
5 | COC(=O)COc1ccccc1/C=C1/N=C(c2ccccc2)N(c2c(C)n(C)n(-c3ccccc3)c2=O)C1=O | > 100 µM | > 100 µM | > 100 µM | > 100 µM | > 100 µM | 56.4 µM | > 100 µM | > 100 µM | > 100 µM | > 100 µM | > 100 µM | > 100 µM | > 100 µM | > 100 µM | > 100 µM | 25 µM | > 100 µM | > 100 µM | 28.9 µM | > 100 µM
6 | COc1ccc(-c2cc(-c3ccc(Cl)cc3)nc(SCCCC(=O)NO)n2)cc1OC | 11.1 µM | 1.54 µM | 6.31 µM | 4.36 µM | 2.04 µM | 10.8 µM | 3.4 µM | > 100 µM | 7.44 µM | 5.33 µM | 2.31 µM | 0.308 µM | 1.49 µM | 0.931 µM | 0.364 µM | 2.9 µM | 0.466 µM | 0.433 µM | 0.946 µM | 1.76 µM
7 | Cc1ncnc2c1ccn2[C@@H]1C[C@H](Oc2cc(C(F)F)c(F)c3c2CNCC3)[C@@H](O)[C@H]1O | > 100 µM | > 100 µM | > 100 µM | > 100 µM | > 100 µM | > 100 µM | > 100 µM | > 100 µM | > 100 µM | > 100 µM | > 100 µM | > 100 µM | > 100 µM | > 100 µM | > 100 µM | > 100 µM | > 100 µM | > 100 µM | > 100 µM | 4.68 µM
8 | COc1cc(C(=O)/C=C/c2cccnc2Nc2ccc(Cl)cc2)cc(OC)c1OC | 59.2 µM | 4.04 µM | 3 µM | 3.32 µM | 3.18 µM | 4.11 µM | 3.88 µM | 1.84 µM | 5.01 µM | 2.14 µM | 3.08 µM | 1.75 µM | 1.63 µM | 1.74 µM | 1.77 µM | 2.01 µM | 1.92 µM | 0.568 µM | 0.655 µM | 0.519 µM
